Here are results for 4 compounds from paper PMC9000887, “Novel 1,2,3-Triazole-Coumarin Hybrid Glycosides and Their Tetrazolyl Analogues: Design, Anticancer Evaluation and Molecular Docking Targeting EGFR, VEGFR-2 and CDK-2” (Molecules, 2022).

Data set [1] deals with human melanoma (A-375) cancer cell line. Kind of data set: MTT cytotoxicity assay, A-375. As to conditions: for inhibition at 100 µM / IC50: Homo sapiens; for inhibition at 100 µM: A-375, read-out: % Inhibition A-375; for IC50: A-375, read-out: IC50 (Mean ± SEM) A-375.
Procedure: (§2) After 48 h incubation, the medium was aspirated and then 40 μL MTT salt (2.5 mg/mL) was added for a further 4 h. […] Doxorubicin was used as the positive control and 0.5% DMSO was used as the negative control.
The test system of data set [2] is human melanoma (Mel-501) cancer cell line. The experiment in a line: MTT cytotoxicity assay, Mel-501. To be noted: for IC50: read-out: IC50 (Mean ± SEM) Mel-501; for inhibition at 100 µM: read-out: % Inhibition Mel-501.
Procedure: as §2
Data set [3] deals with human pancreatic (Paca-2) cancer cell line. Kind of data set: MTT cytotoxicity assay, Paca-2. To be noted: for inhibition at 100 µM: PaCa-2, read-out: % Inhibition Paca-2.
Procedure: as §2
The test system of data set [4] is human colon (Caco-2) cancer cell line. As to conditions: Caco-2, 100 µM.
Procedure: as §2
The test system of data set [5] is human prostate (PC-3) cancer cell line. The experiment in a line: MTT cytotoxicity assay, PC-3. To be noted: for inhibition at 100 µM / IC50: Homo sapiens; for inhibition at 100 µM: read-out: % Inhibition PC-3; for IC50: read-out: IC50 (Mean ± SEM) PC-3.
Procedure: as §2
In data set [6] the test system is Caspase-3. Kind of data set: Caspase-3 protein level ELISA in Paca-2. In kind it is cell-based, human. To be noted: Paca-2, 24 h at IC50 (10.7 μM). From the text:
The precoated micro-ELISA plate with an antibody specific to Caspase-3 was applied using the Human Caspase-3 ELISA Kit from Invitrogen INC. Catalog # KHO1091 (96 tests) (542 Flynn Road, Camarillo, CA, USA) according to the manufacturer’s instructions.

The test system of data set [7] is Caspase-7. Kind of data set: Caspase-7 protein level ELISA in Paca-2. To be noted: Paca-2, 24 h at IC50 (10.7 μM). The format is cell-based, human. As for the experimental part: The micro-ELISA plate provided in this kit was pre-coated with a Caspase-7-specific antibody. A biotinylated Caspase-7 antibody and Avidin–horseradish peroxidase (HRP) conjugate was added. The excess components were removed. The substrate solution was added. Wells containing Caspase-7, biotinylated detection antibody, and Avidin-HRP conjugate appeared blue in colour. The colour turned yellow following the addition of sulphuric acid solution. The optical density (OD) was measured at a wavelength of 450 ± 2 nm.

Data set [8] concerns the target EGFR (Homo sapiens, UniProt P00533). The experiment in a line: In vitro kinase inhibitory assessment, EGFR (Kinase-Glo luminescence). In kind it is biochemical. To be noted: mean of three values; read-out: IC50 (Mean ± SEM) EGFR.
In data set [9] the test system is human colon (Caco-2) cancer cell line. Kind of data set: MTT cytotoxicity assay, Caco-2. As to conditions: for % Inhibition Caco-2: Caco-2, at 100 µM, MTT, (-) No activity detected; for IC50: read-out: IC50 (Mean ± SEM) Caco-2, Caco-2, MTT, three independent determinations.
Procedure: as §2
Data set [10] deals with Cytochrome-c. The experiment in a line: Cytochrome-c ELISA in Paca-2. The format is cell-based, human. As to conditions: Paca-2, 24 h at IC50 (10.7 μM); control 0.123 ng/mL. As for the experimental part: Cytochrome-c specific antibodies were precoated onto 96-well plates. Cytochrome-c were analysed by enzyme-linked immunosorbent assays (ELISAs) using commercial kits (ab119521; Abcam, Cambridge, MA, USA). The optimal dilutions were determined and ELISAs were performed according to the manufacturer’s instructions.

The target of data set [11] is VEGFR-2 (Homo sapiens, UniProt P35968). Kind of data set: biochemical. The procedure: The cells were harvested, and the homogenates were prepared in saline using a tight pestle homogenizer until complete cell disruption. The kit used a double-antibody sandwich enzyme-linked immunosorbent assay (ELISA) to determine the level of human VEGFR-2 in samples. A monoclonal antibody for VEGFR-2 was pre-coated onto 96-well plates. The test samples were added to the wells and a biotinylated detection polyclonal antibody from goat specific for VEGFR-2 was added, subsequently followed by washing with PBS buffer. Avidin–Biotin–Peroxidase complex was added, and the unbound conjugates were washed away with PBS buffer. HRP substrate TMB was used to visualize HRP enzymatic reaction. TMB was catalysed by HRP to produce a blue colour product that changed into yellow after the addition of acidic stop solution. The density of yellow colour is proportional to the human VEGFR-2 amount of the sample captured in the plate. The chroma of colour and the concentration of the human VEGFR-2 of the samples were positively correlated and the optical density was determined at 450 nm. The level of human VEGFR-2 in samples was calculated (pg/mL) as duplicate determinations from the standard curve. The % inhibition was calculated in comparison to control untreated cells.
Chain of VEGFR-2 (P35968 20-1356): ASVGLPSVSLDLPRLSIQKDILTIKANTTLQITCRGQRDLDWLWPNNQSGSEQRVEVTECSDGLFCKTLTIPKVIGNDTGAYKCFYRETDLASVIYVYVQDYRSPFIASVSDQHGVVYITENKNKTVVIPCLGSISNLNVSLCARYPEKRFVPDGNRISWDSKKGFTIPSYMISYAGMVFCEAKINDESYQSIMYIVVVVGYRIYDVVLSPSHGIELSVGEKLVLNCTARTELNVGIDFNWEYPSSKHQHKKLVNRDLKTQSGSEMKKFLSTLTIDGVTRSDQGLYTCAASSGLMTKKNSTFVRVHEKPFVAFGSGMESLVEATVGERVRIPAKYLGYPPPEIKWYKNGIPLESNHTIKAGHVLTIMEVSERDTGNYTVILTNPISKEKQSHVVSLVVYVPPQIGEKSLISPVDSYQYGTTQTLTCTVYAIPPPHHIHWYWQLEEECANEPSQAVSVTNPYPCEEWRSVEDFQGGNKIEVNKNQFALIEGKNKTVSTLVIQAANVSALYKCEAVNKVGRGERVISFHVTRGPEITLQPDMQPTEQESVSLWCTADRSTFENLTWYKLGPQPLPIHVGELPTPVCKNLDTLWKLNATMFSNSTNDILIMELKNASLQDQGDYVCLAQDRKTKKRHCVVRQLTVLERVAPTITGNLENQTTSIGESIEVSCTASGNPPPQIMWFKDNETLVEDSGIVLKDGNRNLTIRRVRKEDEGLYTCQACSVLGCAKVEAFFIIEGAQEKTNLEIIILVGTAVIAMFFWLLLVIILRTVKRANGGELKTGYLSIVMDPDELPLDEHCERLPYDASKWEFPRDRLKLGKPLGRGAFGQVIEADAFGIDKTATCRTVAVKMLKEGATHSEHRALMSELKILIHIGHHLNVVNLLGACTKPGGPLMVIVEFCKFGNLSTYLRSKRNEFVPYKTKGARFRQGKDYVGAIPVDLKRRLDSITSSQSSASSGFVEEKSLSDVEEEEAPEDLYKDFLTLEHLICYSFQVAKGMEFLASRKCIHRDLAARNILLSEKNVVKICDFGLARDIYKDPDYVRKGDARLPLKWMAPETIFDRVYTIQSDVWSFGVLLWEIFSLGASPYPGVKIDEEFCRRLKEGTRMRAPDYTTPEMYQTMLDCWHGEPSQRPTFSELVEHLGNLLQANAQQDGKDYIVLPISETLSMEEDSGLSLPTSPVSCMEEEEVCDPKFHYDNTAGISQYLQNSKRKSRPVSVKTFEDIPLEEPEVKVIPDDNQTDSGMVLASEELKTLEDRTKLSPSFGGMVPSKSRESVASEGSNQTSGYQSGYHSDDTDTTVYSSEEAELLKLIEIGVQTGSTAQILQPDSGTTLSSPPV

Data set [12] relates to PD-1. Kind of data set: PD-1 protein level ELISA in Paca-2. In kind it is cell-based, human. To be noted: Paca-2, 24 h at IC50 (10.7 μM); untreated control 275.6 Pg/mL. The procedure: Samples or standards were added to the wells Human PD-1 eliza kit (ab252360 Human PD-1, Abcam, Cambridge, MA, USA), followed by the antibody mix. After incubation, the wells were washed to remove unbound material. TMB Development Solution was added and during incubation was catalysed by HRP, generating blue coloration. This reaction was then stopped by the addition of Stop Solution, completing any colour change from blue to yellow. The optical density (OD) was measured at a wavelength of 450 ± 2 nm.

Data set [13] relates to Paca-2 cells. Kind of data set: Cell cycle analysis by flow cytometry (PI staining). The format is cell-based, human. To be noted: Paca-2, 24 h at IC50 (10.7 μM). The procedure:
(§1) Apoptosis investigation and cell cycle analysis were elucidated by flow cytometry. Paca-2 cells were seeded at 8 × 10^4 and incubated at 37 °C in 5% CO2 overnight. […] For cell cycle analysis, cell pellets were fixed with 70% ethanol on ice for 15 min and collected again. The pellets were incubated with propidium iodide (PI) staining solution at room temperature for 1 h and analysed by a Gallios flow cytometer (Beckman Coulter, Brea, CA, USA). Apoptosis detection was carried out by FITC AnnexinV/PI commercial kit (Becton Dickenson, Franklin Lakes, NJ, USA) following the manufacturer’s protocol. The samples were analysed by fluorescence-activated cell sorting (FACS) with a Gallios flow cytometer (Beckman Coulter, Brea, CA, USA) within 1 h after staining. Data were analysed using Kaluza v 1.2 (Beckman Coulter, Brea, CA, USA).

In data set [14] the target is CDK-2/cyclin A2 (Homo sapiens, UniProt P24941). Kind of data set: In vitro kinase inhibitory assessment, CDK-2/cyclin A2 (ELISA). In kind it is biochemical. To be noted: mean of three values; read-out: IC50 (Mean ± SEM) CDK-2/Cyclin A2. As for the experimental part:
Assay of CDK-2/cyclin A2 was achieved through ELISA using an affinity tag labelled capture antibody. Adding the samples and the standard to the wells was carried out after the addition of the antibody mix. After the incubation period, the unrestrained substance was discarded and the wells were washed. The added TMB (3,3′,5,5′-tetramethylbenzidine) substrate was prompted by Horseradish peroxidase (HRP) and blue coloration appeared. This reaction was stopped with the addition of stop solution to complete the change in colour from blue to yellow. The created signals were equivalent to the quantity of bound analyte and Robonik P2000 ELISA reader was used to record the intensity at a certain wavelength (450 nm). The concentrations of the screened compounds were calculated through the plotted curve.

For data set [15], the system named is Paca-2 cells. Kind of data set: Apoptosis detection, FITC Annexin V/PI flow cytometry. The format is cell-based, human. As to conditions: Paca-2, 24 h at IC50 (10.7 μM); DMSO control 0.28%. As for the experimental part:
as §1

Setting [16] is: Homo sapiens, PaCa-2, read-out: IC50 (Mean ± SEM) Paca-2.

Where two headings read alike, the source gives them in different places.

Chain of EGFR (P00533 25-1210): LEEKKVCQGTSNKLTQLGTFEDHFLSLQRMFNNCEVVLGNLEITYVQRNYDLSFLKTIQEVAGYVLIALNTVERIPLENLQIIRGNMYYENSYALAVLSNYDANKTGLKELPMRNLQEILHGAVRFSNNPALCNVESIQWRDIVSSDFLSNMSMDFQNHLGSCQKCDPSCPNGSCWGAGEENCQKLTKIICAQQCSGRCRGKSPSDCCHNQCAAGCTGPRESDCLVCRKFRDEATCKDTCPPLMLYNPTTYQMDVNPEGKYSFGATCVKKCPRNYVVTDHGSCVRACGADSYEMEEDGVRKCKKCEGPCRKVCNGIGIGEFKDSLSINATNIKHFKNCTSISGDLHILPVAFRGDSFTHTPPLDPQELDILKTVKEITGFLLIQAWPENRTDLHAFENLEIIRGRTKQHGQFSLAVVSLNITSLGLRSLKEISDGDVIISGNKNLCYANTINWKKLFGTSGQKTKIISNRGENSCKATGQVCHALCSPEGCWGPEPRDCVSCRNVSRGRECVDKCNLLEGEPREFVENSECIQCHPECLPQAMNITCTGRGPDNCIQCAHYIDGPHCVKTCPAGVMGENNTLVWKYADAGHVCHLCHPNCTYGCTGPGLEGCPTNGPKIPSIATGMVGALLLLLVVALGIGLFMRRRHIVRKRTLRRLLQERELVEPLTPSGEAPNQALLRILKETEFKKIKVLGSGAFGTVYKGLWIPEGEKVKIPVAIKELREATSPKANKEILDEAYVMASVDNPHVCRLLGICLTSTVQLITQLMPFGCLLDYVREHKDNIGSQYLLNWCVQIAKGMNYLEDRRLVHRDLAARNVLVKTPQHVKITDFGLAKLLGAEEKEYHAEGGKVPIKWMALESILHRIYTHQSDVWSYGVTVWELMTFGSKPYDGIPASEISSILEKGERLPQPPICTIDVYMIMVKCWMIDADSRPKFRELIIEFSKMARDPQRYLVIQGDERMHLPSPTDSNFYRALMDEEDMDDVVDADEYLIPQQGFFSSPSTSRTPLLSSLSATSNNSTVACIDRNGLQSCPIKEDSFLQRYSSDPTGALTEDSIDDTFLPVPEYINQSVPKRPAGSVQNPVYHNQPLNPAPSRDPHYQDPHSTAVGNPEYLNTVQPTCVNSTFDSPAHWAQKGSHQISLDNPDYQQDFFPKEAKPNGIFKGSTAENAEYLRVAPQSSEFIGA

In the case of “4-Phenyl-7-((1-(2,3,4-tri-O-acetyl-β-D-xylopyranosyl)-2H-tetrazol-5-yl)methoxy)-2H-chromen-2-one [Compound 6]”, the “% Inhibition A-375” value in [1] (A-375, at 100 µM, MTT) is reported as 45.8%. In data set [2] (Mel-501, at 100 µM, MTT), the “% Inhibition Mel-501” value is recorded as 71%. Besides, the IC50 is 80.4 ± 2.1 µM in [2] (Mel-501, MTT, three independent determinations) and 60 ± 1.4 µM in data set [3] (read-out: IC50 (Mean ± SEM) Paca-2, Paca-2, MTT, 100 to 0.78 μM, three independent determinations). For the same compound, the “% Inhibition Paca-2” value in data set [3] (Paca-2, at 100 µM, MTT) is reported as 72.1%. The “% Inhibition Caco-2” value in data set [4] is reported as “-”. Besides, in data set [5] (PC-3, at 100 µM, MTT), the “% Inhibition PC-3” value was found to be 9.1%.
In the case of `O=c1cc(-c2ccccc2)c2ccc(OCc3nnn(CC(O)CO)n3)cc2o1` (stereo not drawn) [Compound 10, 7-((2-(2,3-Dihydroxypropyl)-2H-tetrazol-5-yl)methoxy)-4-phenyl-2H-chromen-2-one], the “upregulation of caspase-3 protein level” value in [6] (versus control) is on record as 2.8 fold. The “caspase-3 protein level in treated cells” value in data set [6] (control 95.04 Pg/mL) amounted to 266.8 pg/mL. For the same compound, the inhibition at 100 µM was 98.2% in data set [1], 95.8% in data set [2] (Homo sapiens), 99.9% in data set [3] (Homo sapiens) and 99.2% in data set [5]. Moreover, the IC50 in data set [1] stood at 10.9 ± 0.1 µM; in data set [8], 0.09 ± 0.21 µM; in data set [2] (Homo sapiens), 8.8 ± 0.2 µM; in data set [9], 31.9 ± 0.7 µM; in [11] it was 0.86 ± 0.25 µM; in data set [3] (setting [16]) it was 10.7 ± 0.4 µM. The IC50 in [14] was determined as 0.19 ± 0.05 µM; in data set [5], 25.4 ± 0.5 µM. For the same compound, the “elevation of caspase-7 protein level” value in data set [7] (versus control) worked out at 4.3 fold. Also, the “caspase-7 protein level in treated cells” value in [7] (control 0.555 ng/mL) amounted to 2.363 ng/mL. Moreover, in data set [9], the “% Inhibition Caco-2” value came out at 99.6%. In data set [10], the “cytochrome-c release into the cytosol of treated cells” value is on record as 0.395 ng/mL. The “PD-1 level in treated cells” value in data set [12] came to 91.4 pg/mL. For the same compound, the “increase of percentage of the cells at S phase compared to the control” value in data set [13] amounted to 1.3 folds. The “increase of pre-G1 phase cells percentage compared to the control” value in data set [13] was determined as 15.7 folds. In [15], the “late/secondary cellular apoptosis (PI / Annexin V-FITC, upper right quadrant)” value amounted to 15.55%.
`CC(=O)OC[C@H]1O[C@@H](n2cc(COc3ccc4c(-c5ccccc5)cc(=O)oc4c3)nn2)[C@H](OC(C)=O)[C@@H](OC(C)=O)[C@@H]1OC(C)=O` [Compound 13, 4-Phenyl-7-((1-(2,3,4,6-Tetra-O-acetyl-β-D-glucopyranosyl)-1H-1,2,3-triazol-4-yl)methoxy)-2H-chromen-2-one] displayed a melting point of 131 to 132 °C. In [1], the inhibition at 100 µM was found to be 96.9% and the IC50 is 14.5 ± 0.2 µM. Besides, in data set [8], the IC50 is 66 ± 0.01 µM. Besides, in [2] (Homo sapiens), the inhibition at 100 µM came out at 98.5% and the IC50 worked out at 16.7 ± 0.3 µM. For the same compound, in [9], the “% Inhibition Caco-2” value turned out to be 99.6% and the IC50 is 40.5 ± 0.9 µM. In data set [11], this compound returned an IC50 of 45 ± 0.1 µM. Besides, the inhibition at 100 µM in data set [3] (Homo sapiens) was determined as 97.6%. Moreover, the IC50 in [3] (setting [16]) was 14.6 ± 1.1 µM. Besides, the IC50 in data set [14] is 0.5 ± 0.11 µM. In addition, in [5], the inhibition at 100 µM is 95.6% and the IC50 was 22.3 ± 0.6 µM.
Turning to `CC(=O)OC1COC(n2cc(COc3ccc4c(-c5ccccc5)cc(=O)oc4c3)nn2)C(OC(C)=O)C1OC(C)=O` [Compound 15, 4-Phenyl-7-((1-(2,3,4-tria-O-acetyl-β-D-xylopyranosyl)-1H-1,2,3-triazol-4-yl)methoxy)-2H-chromen-2-one], the melting point was in the range of 89 to 90 °C. For the same compound, in [1], the inhibition at 100 µM amounted to 94.7% and the IC50 stood at 9.9 ± 1 µM. Besides, the IC50 in data set [8] came to 53 ± 0.15 µM. In data set [2] (Homo sapiens), the inhibition at 100 µM was determined as 97.8% and the IC50 amounted to 4.1 ± 0.3 µM. Besides, in [9], the “% Inhibition Caco-2” value is 99.3% and the IC50 came to 20.4 ± 0.6 µM. In [11], this compound had an IC50 of 40 ± 0.05 µM. In addition, the inhibition at 100 µM in data set [3] (Homo sapiens) worked out at 95%. In data set [3] (setting [16]), the IC50 was 16.9 ± 0.9 µM. In addition, in [14], the IC50 was determined as 0.48 ± 0.15 µM. Moreover, in [5], the inhibition at 100 µM was determined as 98.2% and the IC50 is 12.5 ± 0.9 µM.
